Reference: US12343326B2, “Psychoactive medicines and their use for treating psychiatric and neurological conditions and disorders” (Transcend Therapeutics, Inc., priority 2021, dated 2025)

Assays:
Assay in all cases: β-arrestin based GPCR screen (PathHunter / GPCRmax), antagonist mode
[1] = target: 168 GPCRs (Homo sapiens, UniProt P08172); settings: CHRM2, Antagonist
[2] = target: 168 GPCRs (Homo sapiens, UniProt P25021)
[3] = target: 168 GPCRs (Homo sapiens, UniProt P21731); settings: TBXA2R
[4] = target: 168 GPCRs (Homo sapiens, UniProt P47871); settings: GCGR
[5] = target: 168 GPCRs (Homo sapiens, UniProt P30872)
[6] = target: 168 GPCRs (Homo sapiens, UniProt Q9UKP6)
[7] = target: 168 GPCRs (Homo sapiens, UniProt P21462)
[8] = target: 168 GPCRs (Homo sapiens, UniProt Q9H244)
[9] = target: 168 GPCRs (Homo sapiens, UniProt P35368); settings: ADRA1B, Antagonist
[10] = target: 168 GPCRs (Homo sapiens, UniProt P16473); settings: TSHR(L)
[11] = target: 168 GPCRs (Homo sapiens, UniProt P30874)
[12] = target: T1, 168 GPCRs (Homo sapiens, UniProt P32247); settings: BRS3, Antagonist
T1 sequence (P32247 1-399): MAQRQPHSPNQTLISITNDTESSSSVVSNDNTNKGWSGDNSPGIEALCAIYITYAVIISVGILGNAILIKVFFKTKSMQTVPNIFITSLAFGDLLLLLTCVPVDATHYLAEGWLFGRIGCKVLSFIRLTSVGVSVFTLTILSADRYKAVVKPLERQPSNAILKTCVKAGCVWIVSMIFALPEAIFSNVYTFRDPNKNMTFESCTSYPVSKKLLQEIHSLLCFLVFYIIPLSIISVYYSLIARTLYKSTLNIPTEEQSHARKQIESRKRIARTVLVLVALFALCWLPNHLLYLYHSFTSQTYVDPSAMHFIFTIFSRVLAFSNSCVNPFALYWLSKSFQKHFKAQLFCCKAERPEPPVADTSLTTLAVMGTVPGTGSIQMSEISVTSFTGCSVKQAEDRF

[13] = target: 168 GPCRs (Homo sapiens, UniProt P30559); settings: OXTR
[14] = target: 168 GPCRs (Homo sapiens, UniProt P32302)
[15] = target: 168 GPCRs (Homo sapiens, UniProt P46663); settings: BDKRB1, Antagonist
[16] = target: 168 GPCRs (Homo sapiens, UniProt Q99705)
[17] = target: 168 GPCRs (Homo sapiens, UniProt Q969F8); settings: KISS1R
[18] = target: 168 GPCRs (Homo sapiens, UniProt Q99788); settings: CMKLR1, Antagonist
[19] = target: 168 GPCRs (Homo sapiens, UniProt P30411); settings: BDKRB2, Antagonist
[20] = target: 168 GPCRs (Homo sapiens, UniProt P41968); settings: MC3R
168 GPCRs (Homo sapiens, UniProt P41968), sequence (P41968 whole entry): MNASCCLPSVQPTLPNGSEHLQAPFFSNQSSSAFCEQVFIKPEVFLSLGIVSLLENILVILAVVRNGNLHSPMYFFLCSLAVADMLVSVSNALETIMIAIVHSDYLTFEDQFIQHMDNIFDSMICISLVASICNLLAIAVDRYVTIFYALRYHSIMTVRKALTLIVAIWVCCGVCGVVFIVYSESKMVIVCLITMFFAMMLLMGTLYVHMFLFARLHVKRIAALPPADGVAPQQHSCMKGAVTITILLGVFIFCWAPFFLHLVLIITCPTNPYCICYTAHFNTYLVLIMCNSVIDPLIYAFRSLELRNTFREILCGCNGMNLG

168 GPCRs (Homo sapiens, UniProt Q9H244), sequence (Q9H244 whole entry): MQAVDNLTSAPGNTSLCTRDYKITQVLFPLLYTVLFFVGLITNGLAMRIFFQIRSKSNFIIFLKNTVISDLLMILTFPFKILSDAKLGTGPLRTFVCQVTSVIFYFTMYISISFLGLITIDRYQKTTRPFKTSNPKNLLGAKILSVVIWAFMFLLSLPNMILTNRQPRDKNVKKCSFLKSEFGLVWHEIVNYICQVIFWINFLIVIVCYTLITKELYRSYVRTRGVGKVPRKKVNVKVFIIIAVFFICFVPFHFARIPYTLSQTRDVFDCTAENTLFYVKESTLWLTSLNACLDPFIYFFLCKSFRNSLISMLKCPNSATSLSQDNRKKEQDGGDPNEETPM
168 GPCRs (Homo sapiens, UniProt P32302), sequence (P32302 whole entry): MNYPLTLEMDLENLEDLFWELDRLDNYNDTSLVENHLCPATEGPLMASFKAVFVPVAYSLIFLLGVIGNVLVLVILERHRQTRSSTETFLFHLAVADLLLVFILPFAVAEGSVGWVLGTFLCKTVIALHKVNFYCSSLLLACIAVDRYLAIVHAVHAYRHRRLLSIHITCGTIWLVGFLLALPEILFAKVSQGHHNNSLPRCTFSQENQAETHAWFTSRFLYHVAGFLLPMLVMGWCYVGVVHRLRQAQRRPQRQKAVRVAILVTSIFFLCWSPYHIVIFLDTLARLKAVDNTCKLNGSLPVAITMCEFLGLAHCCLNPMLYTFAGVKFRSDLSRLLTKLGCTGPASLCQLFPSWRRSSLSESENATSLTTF
168 GPCRs (Homo sapiens, UniProt P16473), sequence (P16473 21-764): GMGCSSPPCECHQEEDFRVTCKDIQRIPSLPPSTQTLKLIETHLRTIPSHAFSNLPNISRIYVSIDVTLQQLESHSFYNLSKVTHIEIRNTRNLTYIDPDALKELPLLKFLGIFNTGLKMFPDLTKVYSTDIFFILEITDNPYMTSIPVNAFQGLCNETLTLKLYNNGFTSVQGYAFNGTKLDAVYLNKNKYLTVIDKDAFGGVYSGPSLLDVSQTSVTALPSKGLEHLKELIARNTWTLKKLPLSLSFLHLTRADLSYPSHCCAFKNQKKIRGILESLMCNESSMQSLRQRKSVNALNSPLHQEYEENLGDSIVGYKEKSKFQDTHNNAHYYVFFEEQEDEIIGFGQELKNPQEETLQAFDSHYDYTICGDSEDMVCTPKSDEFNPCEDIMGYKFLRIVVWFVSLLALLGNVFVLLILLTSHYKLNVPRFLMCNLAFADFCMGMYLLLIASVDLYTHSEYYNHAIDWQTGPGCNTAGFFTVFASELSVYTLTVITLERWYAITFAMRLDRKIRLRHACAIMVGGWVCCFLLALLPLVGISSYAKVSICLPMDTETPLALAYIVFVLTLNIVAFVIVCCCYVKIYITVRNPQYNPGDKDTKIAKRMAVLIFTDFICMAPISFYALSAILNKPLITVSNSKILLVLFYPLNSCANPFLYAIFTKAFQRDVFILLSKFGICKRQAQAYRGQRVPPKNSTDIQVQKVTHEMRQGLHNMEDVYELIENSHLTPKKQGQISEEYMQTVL
168 GPCRs (Homo sapiens, UniProt Q99705), sequence (Q99705 whole entry): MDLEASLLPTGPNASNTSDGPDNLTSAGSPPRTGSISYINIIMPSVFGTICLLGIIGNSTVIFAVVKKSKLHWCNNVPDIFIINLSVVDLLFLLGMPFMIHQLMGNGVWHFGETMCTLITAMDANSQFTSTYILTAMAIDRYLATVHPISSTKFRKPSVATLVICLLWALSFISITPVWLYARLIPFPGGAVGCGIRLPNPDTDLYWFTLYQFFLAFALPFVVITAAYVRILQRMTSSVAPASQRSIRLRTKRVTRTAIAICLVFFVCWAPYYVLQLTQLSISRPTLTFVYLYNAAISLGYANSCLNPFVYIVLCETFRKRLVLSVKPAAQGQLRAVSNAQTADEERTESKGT
168 GPCRs (Homo sapiens, UniProt P30411), sequence (P30411 whole entry): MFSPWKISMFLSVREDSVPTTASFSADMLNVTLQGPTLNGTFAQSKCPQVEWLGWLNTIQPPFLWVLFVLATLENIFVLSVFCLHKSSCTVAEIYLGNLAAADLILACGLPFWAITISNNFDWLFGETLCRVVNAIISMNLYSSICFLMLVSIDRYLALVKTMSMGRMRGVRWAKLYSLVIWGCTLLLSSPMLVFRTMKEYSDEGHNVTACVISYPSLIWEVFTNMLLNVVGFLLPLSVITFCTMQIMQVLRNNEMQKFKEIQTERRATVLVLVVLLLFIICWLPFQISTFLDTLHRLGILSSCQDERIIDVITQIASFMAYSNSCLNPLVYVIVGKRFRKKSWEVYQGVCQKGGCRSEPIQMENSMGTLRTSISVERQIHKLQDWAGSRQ
168 GPCRs (Homo sapiens, UniProt P21462), sequence (P21462 whole entry): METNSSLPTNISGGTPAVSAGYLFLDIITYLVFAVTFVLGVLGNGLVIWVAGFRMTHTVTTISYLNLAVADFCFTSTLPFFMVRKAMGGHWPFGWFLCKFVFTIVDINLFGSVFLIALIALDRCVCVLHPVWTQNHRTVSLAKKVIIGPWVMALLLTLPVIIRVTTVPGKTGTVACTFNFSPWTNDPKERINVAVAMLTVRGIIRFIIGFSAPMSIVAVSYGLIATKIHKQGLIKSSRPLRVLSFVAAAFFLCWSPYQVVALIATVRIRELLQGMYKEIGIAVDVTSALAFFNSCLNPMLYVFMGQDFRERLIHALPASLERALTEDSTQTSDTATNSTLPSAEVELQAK
168 GPCRs (Homo sapiens, UniProt Q9UKP6), sequence (Q9UKP6 whole entry): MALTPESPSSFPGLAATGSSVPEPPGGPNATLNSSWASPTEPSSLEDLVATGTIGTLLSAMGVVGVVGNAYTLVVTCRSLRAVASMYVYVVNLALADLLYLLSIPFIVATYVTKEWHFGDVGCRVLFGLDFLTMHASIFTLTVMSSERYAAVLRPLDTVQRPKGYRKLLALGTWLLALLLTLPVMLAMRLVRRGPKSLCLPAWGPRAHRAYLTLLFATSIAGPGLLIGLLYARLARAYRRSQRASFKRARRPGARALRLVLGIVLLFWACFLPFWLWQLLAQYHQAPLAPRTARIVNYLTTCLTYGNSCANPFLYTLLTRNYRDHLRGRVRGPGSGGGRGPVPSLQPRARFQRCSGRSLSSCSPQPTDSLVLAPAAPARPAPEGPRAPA
168 GPCRs (Homo sapiens, UniProt Q99788), sequence (Q99788 whole entry): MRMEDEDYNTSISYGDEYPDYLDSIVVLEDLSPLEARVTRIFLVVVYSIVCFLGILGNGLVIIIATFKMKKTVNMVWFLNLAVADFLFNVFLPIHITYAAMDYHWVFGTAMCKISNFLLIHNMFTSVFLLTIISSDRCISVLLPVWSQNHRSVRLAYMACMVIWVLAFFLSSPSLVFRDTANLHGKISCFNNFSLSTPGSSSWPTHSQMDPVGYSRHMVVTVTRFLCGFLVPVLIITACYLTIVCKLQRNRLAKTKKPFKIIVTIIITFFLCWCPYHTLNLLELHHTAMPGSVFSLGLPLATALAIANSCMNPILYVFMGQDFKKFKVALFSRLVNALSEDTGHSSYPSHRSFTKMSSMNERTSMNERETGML
168 GPCRs (Homo sapiens, UniProt P47871), sequence (P47871 26-477): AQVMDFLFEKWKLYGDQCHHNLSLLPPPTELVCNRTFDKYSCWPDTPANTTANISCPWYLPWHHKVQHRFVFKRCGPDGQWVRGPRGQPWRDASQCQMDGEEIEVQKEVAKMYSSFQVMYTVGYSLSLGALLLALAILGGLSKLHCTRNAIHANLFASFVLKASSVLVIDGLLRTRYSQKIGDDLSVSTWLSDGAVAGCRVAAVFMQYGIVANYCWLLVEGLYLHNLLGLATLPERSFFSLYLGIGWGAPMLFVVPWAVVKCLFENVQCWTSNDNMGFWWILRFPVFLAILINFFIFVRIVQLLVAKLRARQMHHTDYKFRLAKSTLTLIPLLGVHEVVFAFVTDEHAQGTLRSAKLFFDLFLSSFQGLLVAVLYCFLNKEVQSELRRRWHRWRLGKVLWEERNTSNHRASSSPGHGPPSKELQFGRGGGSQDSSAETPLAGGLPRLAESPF
168 GPCRs (Homo sapiens, UniProt Q969F8), sequence (Q969F8 whole entry): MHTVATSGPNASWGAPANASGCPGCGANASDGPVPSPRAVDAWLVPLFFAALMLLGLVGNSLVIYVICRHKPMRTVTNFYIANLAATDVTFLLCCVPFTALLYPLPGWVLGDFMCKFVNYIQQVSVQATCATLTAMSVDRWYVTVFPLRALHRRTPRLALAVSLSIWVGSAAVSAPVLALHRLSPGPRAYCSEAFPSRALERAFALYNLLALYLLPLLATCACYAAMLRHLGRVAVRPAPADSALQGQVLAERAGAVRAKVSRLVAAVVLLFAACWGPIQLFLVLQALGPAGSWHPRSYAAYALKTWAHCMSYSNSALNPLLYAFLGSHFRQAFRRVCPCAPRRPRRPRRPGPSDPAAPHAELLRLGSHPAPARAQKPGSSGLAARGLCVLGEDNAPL
168 GPCRs (Homo sapiens, UniProt P46663), sequence (P46663 whole entry): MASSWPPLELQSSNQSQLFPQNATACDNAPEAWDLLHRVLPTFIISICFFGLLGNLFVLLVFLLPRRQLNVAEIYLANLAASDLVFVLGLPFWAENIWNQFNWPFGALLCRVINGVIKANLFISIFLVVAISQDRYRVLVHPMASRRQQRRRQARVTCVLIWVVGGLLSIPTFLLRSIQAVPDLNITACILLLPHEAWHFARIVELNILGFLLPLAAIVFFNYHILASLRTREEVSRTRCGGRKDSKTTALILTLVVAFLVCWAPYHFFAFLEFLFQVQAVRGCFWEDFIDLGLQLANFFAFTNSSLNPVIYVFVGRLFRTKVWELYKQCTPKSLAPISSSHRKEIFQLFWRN

## CNC(C)C(=O)c1ccc2c(c1)OCO2 (stereo not shown) [methylone, 3,4-methylenedioxy-N-methylcathinone]
[1]; 1 uM
  activity at 1 µM: -18.5%
[1]; 10 uM
  activity at 10 µM: -7.4%
[2]; HRH2, Antagonist mode, 10 uM
  activity at 10 µM: 8.1%
[2]; HRH2, Antagonist, 1 uM
  activity at 1 µM: 7.1%
[3]; Antagonist mode, 10 uM
  activity at 10 µM: -19.7%
[3]; Antagonist, 1 uM
  activity at 1 µM: -5.5%
[4]; Antagonist mode, 10 uM
  activity at 10 µM: -7.7%
[4]; Antagonist, 1 uM
  activity at 1 µM: -16%
[5]; SSTR1, Antagonist mode, 10 uM
  activity at 10 µM: 20.9%
[5]; SSTR1, Antagonist, 1 uM
  activity at 1 µM: 32.4%
[6]; UTR2, Antagonist mode, 10 uM
  activity at 10 µM: 4.2%
[6]; UTR2, Antagonist, 1 uM
  activity at 1 µM: -2.1%
[7]; FPR1, Antagonist mode, 10 uM
  activity at 10 µM: -11.4%
[7]; FPR1, Antagonist, 1 uM
  activity at 1 µM: -4.9%
[8]; P2RY12, Antagonist mode, 10 uM
  activity at 10 µM: -10.4%
[8]; P2RY12, Antagonist, 1 uM
  activity at 1 µM: -14.8%
[9]; 1 uM
  activity at 1 µM: 17.9%
[9]; 10 uM
  activity at 10 µM: 20.6%
[10]; Antagonist mode, 10 uM
  activity at 10 µM: -6.6%
[10]; Antagonist, 1 uM
  activity at 1 µM: 6.1%
[11]; SSTR2, Antagonist mode, 10 uM
  activity at 10 µM: -4.2%
[11]; SSTR2, Antagonist, 1 uM
  activity at 1 µM: -0.4%
[12]; 1 uM
  activity at 1 µM: 18.3%
[12]; 10 uM
  activity at 10 µM: 10.1%
[13]; Antagonist mode, 10 uM
  activity at 10 µM: 6.9%
[13]; Antagonist, 1 uM
  activity at 1 µM: 12.7%
[14]; CXCR5, Antagonist mode, 10 uM
  activity at 10 µM: -15.1%
[14]; CXCR5, Antagonist, 1 uM
  activity at 1 µM: -4.3%
[15]; 1 uM
  activity at 1 µM: 2.8%
[15]; 10 uM
  activity at 10 µM: 12.1%
[16]; MCHR1, Antagonist mode, 10 uM
  activity at 10 µM: -18.3%
[16]; MCHR1, Antagonist, 1 uM
  activity at 1 µM: -12.2%
[17]; Antagonist mode, 10 uM
  activity at 10 µM: 14.5%
[17]; Antagonist, 1 uM
  activity at 1 µM: 28.7%
[18]; 1 uM
  activity at 1 µM: -0.2%
[18]; 10 uM
  activity at 10 µM: -5.6%
[19]; 1 uM
  activity at 1 µM: 7.3%
[19]; 10 uM
  activity at 10 µM: -2.6%
[20]; Antagonist mode, 10 uM
  activity at 10 µM: 0.3%
[20]; Antagonist, 1 uM
  activity at 1 µM: -5.7%
